{"source": "paper PMC11314063", "about": "“Inhibition of DNA Topoisomerase Ι by Flavonoids and Polyacetylenes Isolated from Bidens pilosa L” (Molecules, 2024)", "key": {"[1]": {"test_system": "DLD-1 cells", "assay": "DNA content analysis (cell cycle, flow cytometry) in DLD-1", "assay_type": "cell-based, human", "settings": "24 h", "description": "(§1) Cells were seeded in 6-well plates and allowed to adhere for 24 h at 37 °C. After treatment with different concentrations of the samples for another 24 h, the cells were harvested and washed with PBS, and then, the DNA content analysis was conducted with a cell cycle staining kit (Multi sciences, Hangzhou, China), according to the manufacturer’s instructions. The fluorescence intensity of the cells was measured by flow cytometry (Beckman CytoFlex, Miami, FL, USA)."}, "[2]": {"test_system": "HepG2", "assay": "SRB cytotoxicity assay, HepG2", "assay_type": "cell-based", "settings": "Homo sapiens, HepG2; SRB assay, 48 h, mean ± SD; read-out: IC50 Cytotoxicity HepG2", "text": "(§2) The cell lines MDA-MB-231 (No. TCHu227), A549 (No. TCHu150), and HepG2 (No. TCHu72) were obtained from the Cell Bank/Stem Cell Bank, Chinese Academy of Sciences (Shanghai, China). The cell lines DLD-1 (No. CC0507) and HCT116 (No. CC0506) were obtained from the Cell Bank of Cellcook Biotech Co., Ltd. (Guangzhou, China). Cell line HL-7702 (No. BNCC338358) was obtained from Bena Culture Collection (Zhengzhou, China).\n(§3) The human cancer cell lines MDA-MB-231 (breast adenocarcinoma), DLD-1 (colorectal adenocarcinoma), A549 (lung epithelial carcinoma), HCT116 (colorectal adenocarcinoma), HepG2 (hepatocellular carcinoma), and human hepatocyte HL-7702 were cultured in Dulbecco’s modified eagle medium (DMEM, Biological Industries, Beit Haemek, Israel) containing 10% (v/v) fetal bovine serum (FBS, Biological Industries, Beit Haemek, Israel) at 37 °C in a humidified incubator (ThermoFisher, Carlsbad, CA, USA) with a 5% CO2 atmosphere."}, "[3]": {"test_system": "HCT116", "assay": "SRB cytotoxicity assay, HCT116", "assay_type": "cell-based", "settings": "Homo sapiens, HCT-116; SRB assay, 48 h, mean ± SD; read-out: IC50 Cytotoxicity HCT116", "text": "as §2, §3"}, "[4]": {"test_system": "DLD-1 cells", "assay": "Western blot of cell cycle-related proteins in DLD-1", "assay_type": "cell-based, human", "settings": "24 h", "description": "Cells treated with the compounds were harvested, and the total protein was isolated with lysis buffer (72 mM Tris pH 6.8, 2% SDS, 10% glycerol, and 0.1% bromophenol blue). The proteins were subjected to SDS-PAGE and transferred to a 0.45 μm PVDF membrane (Millipore, Burlington, USA). After being blocked with 5% non-fat milk in TBST, the membranes were washed and then incubated with specific primary antibodies (Cdk2 and Cdk6 were purchased from BBI Life Sciences Corporation, Shanghai, China; cyclin A, cyclin B, cyclin D, cyclin E, Cdk1, and Cdk4 were purchased from Proteintech, Rosemont, IL, USA) in TBST containing 2% non-fat milk overnight at 4 °C. After washing, the membranes were incubated with secondary horseradish peroxidase (HRP)-conjugated antibodies at room temperature for 1 h. The blot was visualized using an enhanced chemiluminescence assay kit (Meilunbio, Dalian, China) under a chemiluminescence detector (Tanon, Shanghai, China). The band density of the blot was quantified by the ImageJ software with at least three independent experiments."}, "[5]": {"test_system": "HCT116 cells", "assay": "DNA content analysis (cell cycle, flow cytometry) in HCT116", "assay_type": "cell-based, human", "settings": "24 h", "description": "as §1\nFigure S21 Results of flavonoid 5 induced cell cycle arrests in HCT116 cells. A)\nRepresentative images of flow-cytometry analysis of DNA content; B) Statistic analysis\nof cells in G1, S, and G2/M phase after treated with 5. After treatment with 2 and 1 μM\ncompounds 5 for 24 h, the percentages of cell population in the G2/M phase\nrespectively, which meant a potent G2/M cell cycle arrest caused by the treatment (P<\n0.0001). In addition, after treatment with 0.5 μM compounds 5 for 24 h, the percentages\nthat an apparent G1 or S phase arrest was induced after the treatment with a lower\ndifferent from the vehicle control. Data are expressed as mean ± SD values from three\n(1 picture or pasted object on this page, not shown here)"}, "[6]": {"test_system": "A549", "assay": "SRB cytotoxicity assay, A549", "assay_type": "cell-based", "settings": "Homo sapiens, A549; SRB assay, 48 h, mean ± SD; read-out: IC50 Cytotoxicity A549", "text": "as §2, §3"}, "[7]": {"molecular_target": "T1, DNA Topo I (Homo sapiens, UniProt P11387)", "T1 construct": "purchased ThermoFisher, Waltham, MA, USA", "T1 sequence (P11387 1-765)": "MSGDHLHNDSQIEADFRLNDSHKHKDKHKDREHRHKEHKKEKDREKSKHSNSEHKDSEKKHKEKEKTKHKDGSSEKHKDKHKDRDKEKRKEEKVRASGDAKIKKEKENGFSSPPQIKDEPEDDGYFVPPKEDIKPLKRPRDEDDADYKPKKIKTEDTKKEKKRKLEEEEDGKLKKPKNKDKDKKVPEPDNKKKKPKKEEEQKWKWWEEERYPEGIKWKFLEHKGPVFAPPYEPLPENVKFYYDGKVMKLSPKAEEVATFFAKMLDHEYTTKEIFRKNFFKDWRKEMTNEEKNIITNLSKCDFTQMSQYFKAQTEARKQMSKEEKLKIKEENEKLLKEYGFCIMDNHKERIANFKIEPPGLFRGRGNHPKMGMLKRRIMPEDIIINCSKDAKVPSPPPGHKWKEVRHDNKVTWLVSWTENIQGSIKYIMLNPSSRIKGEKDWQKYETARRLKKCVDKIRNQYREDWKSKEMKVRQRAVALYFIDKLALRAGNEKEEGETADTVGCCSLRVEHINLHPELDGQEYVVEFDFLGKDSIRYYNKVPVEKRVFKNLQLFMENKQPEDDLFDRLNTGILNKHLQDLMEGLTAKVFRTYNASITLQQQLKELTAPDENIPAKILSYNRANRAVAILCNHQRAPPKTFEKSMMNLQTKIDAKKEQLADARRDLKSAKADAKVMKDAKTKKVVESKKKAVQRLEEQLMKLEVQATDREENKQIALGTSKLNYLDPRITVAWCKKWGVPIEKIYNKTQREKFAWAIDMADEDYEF", "assay": "Topo I inhibition assay (DNA relaxation assay)", "assay_type": "biochemical", "settings": "DNA relaxation assay, pBR322, mean ± SD", "description": "The DNA relaxation assay was adopted to investigate the compounds’ inhibitory activities on Topo I. Different concentrations of the compounds, dissolved and diluted in DMSO, were added into the relaxation buffer (50 mM Tris, pH 7.5, 50 mM KCl, 10 mM MgCl2, 0.1 mM EDTA, 0.5 Mm dithiothreitol, and 0.05 mg/mL bovine serum albumin) containing 0.2 U Topo I (ThermoFisher, Waltham, MA, USA) and incubated at room temperature for 10 min. After that, 500 ng supercoiled pBR322 plasmid DNA (ThermoFisher, Waltham, MA, USA) was added and then incubated at 37 °C for another 30 min. Finally, the reactions were stopped with a stopping solution (5% sodium dodecyl sulfate, 0.0025% bromophenol blue, and 25% glycerol), and the mixtures were applied onto 0.8% agarose gel and subjected to electrophoresis for 1.5 h in Tris-Acetate-EDTA buffer. After being stained with GelRed (Biotium, Fremont, CA, USA), the gel was imagined with the imaging system (Biotop, Shanghai, China). […] The band density of the supercoiled DNA was quantified by the ImageJ software (version 1.53a, National Institutes of Health, Bethesda, MD, USA), and the inhibition activity is expressed as the percentage inhibition and calculated by formula: Inhibition % = [(A − B)/(C − B)] × 100%, where A is the band density of the tested samples, B is the band density of the negative control, and C is the band density of the blank control."}, "[8]": {"test_system": "MDA-MB-231", "assay": "SRB cytotoxicity assay, MDA-MB-231", "assay_type": "cell-based", "settings": "Homo sapiens, MDA-MB-231; SRB assay, 48 h, mean ± SD; read-out: IC50 Cytotoxicity MDA-MB-231", "text": "as §2, §3"}, "[9]": {"test_system": "DLD-1", "assay": "SRB cytotoxicity assay, DLD-1", "assay_type": "cell-based", "settings": "Homo sapiens, DLD-1; SRB assay, 48 h, mean ± SD; read-out: IC50 Cytotoxicity DLD-1", "text": "as §2, §3"}, "[10]": {"assay": "SRB cytotoxicity assay, hepatocyte HL-7702", "assay_type": "cell-based, human", "settings": "HL-7702 hepatocyte cell line; SRB assay, 48 h, human hepatocyte, mean ± SD; read-out: IC50 Cytotoxicity HL-7702", "text": "as §2, §3"}}}
{"smiles": "COc1ccc(-c2oc3cc(O)c(OC)c(O)c3c(=O)c2OC)cc1O", "note": "[Compound 5]", "values": [{"measurement": "percentage of cells in the G1/S phase", "setting": "[1]; DLD-1, 0.5 μM", "result": 85.30, "unit": "%"}, {"measurement": "percentage of cells in the G1/S phase", "setting": "[1]; DLD-1, 1 μM", "result": 76.83, "unit": "%"}, {"measurement": "percentage of cell population in the G2/M phase", "setting": "[1]; DLD-1, 2 μM", "result": 86.05, "unit": "%"}, {"measurement": "percentage of cells in the G1/S (combined) phase", "setting": "[1]; DLD-1, 2 μM", "result": 13.46, "unit": "%"}, {"measurement": "IC50", "setting": "[2]", "result": "40.3 ± 11.1", "unit": "µM"}, {"measurement": "IC50", "setting": "[3]", "result": "0.79 ± 0.13", "unit": "µM"}, {"measurement": "expression levels of cyclin A, cyclin B, and CDK6", "setting": "[4]; DLD-1, 2 μM", "result": "potently decreased"}, {"measurement": "expression of cylcin D, cyclin E, and CDK6", "setting": "[4]; DLD-1, 1 and 0.5 μM", "result": "potent downregulation"}, {"measurement": "percentage of cells in the G1/S phase", "setting": "[5]; HCT116, 0.5 μM", "result": 91.23, "unit": "%"}, {"measurement": "percentage of cell population in the G2/M phase", "setting": "[5]; HCT116, 1 μM", "result": 81.84, "unit": "%"}, {"measurement": "percentage of cells in G1/S (combined) phase", "setting": "[5]; HCT116, 1 μM", "result": 18.13, "unit": "%"}, {"measurement": "percentage of cell population in the G2/M phase", "setting": "[5]; HCT116, 2 μM", "result": 89.72, "unit": "%"}, {"measurement": "percentage of cells in G1/S (combined) phase", "setting": "[5]; HCT116, 2 μM", "result": 10.16, "unit": "%"}, {"measurement": "IC50", "setting": "[6]", "result": "2.16 ± 0.3", "unit": "µM"}, {"measurement": "IC50", "setting": "[7]", "result": "146 ± 7.88", "unit": "µM"}, {"measurement": "IC50", "setting": "[8]", "result": "39.7 ± 4.58", "unit": "µM"}, {"measurement": "IC50", "setting": "[9]", "result": "0.6 ± 0.05", "unit": "µM"}, {"measurement": "IC50 at 48 h", "setting": "[10]", "result": "14.4 ± 0.45", "unit": "µM"}]}
